The values that follow come from patent publication US6949581B2, “Water-soluble mono-PEGylated tetrapyrrole derivatives for photodynamic therapy and method of production” (CeramOptec Industries, Inc., priority 2003, dated 2005).

For series [1] the following is noted: concentrated (>1%) solution cannot be generated by Nakazato technique; cited from earlier work.
For series [2], the system named is HeLa (human cervix carcinoma cells). The series is described as follows: Phototoxicity in HeLa cells under irradiation at 662 nm, MTT assay. The format is cell-based. The settings on record: 30-minute incubation, 10 J/cm^2 irradiation. How it is done:
Illumination was performed at 662 nm (Ceralas PDT laser, BioLitec AG, Germany; 150 mW/cm^2, 5-20 J/cm^2) after a 30-minute incubation period. Cell survival was measured using the MTT assay. Values are expressed as percentages of illuminated, but non-incubated controls. Experiments were performed in octuplets.

For series [3] the following is noted: 4° C. in the dark, cited from earlier work.

Counter-ions that a name gives are not always drawn.

As to `C=Cc1c(C)c2cc3nc(c4c5[nH]c(cc6nc(cc1[nH]2)C(C)=C6CC)c(C)c5C(=O)[C@@H]4C(=O)OC)[C@@H](CCC(=O)O)[C@@H]3C` [sodium salt of pheophorbide a (4), sodium salt of pheophorbide a], the “concentration of injectable solution in water that can be generated” value in series [1] is recorded as ≤ 1%. With “salt of pheophorbide a (5) with N-methyl-D-glucamine”, in series [2], the IC50 phototoxicity stood at 8.0 µg/mL and the IC90 phototoxicity was 22.0 µg/mL. For the molecule trisodium lysyl-chlorin p6, the “stable in an aqueous solution” value in series [3] (aqueous solution) was ≤ 24 h. Besides, in series [3] (solid form), the “stable in solid form” value is “up to 4 months”.
